Measured values from patent US5254543A, “Sulphonylbenzyl-substituted pyridones which are angiotension II receptor antagonists” (Bayer Aktiengesellschaft, priority 1992, dated 1993).

System: angiotensin II-induced contraction of isolated rabbit aorta rings
Test: Inhibition of agonist-induced contraction, angiotensin II: inhibition of vascular contraction in isolated rabbit aorta rings in vitro
Conditions: based on the 3rd = submaximal agonist concentration, read-out: IC50 against contractions induced by AII
Protocol: Rabbits of both sexes are stunned by a blow to the neck and bled out, or in some cases anesthetised with Nembutal (about 60-80 mg/kg i.v.) and sacrificed by opening the thorax. The thorax aorta is taken out, freed from adhering connective tissue, divided into 1.5 mm wide ring segments and individually transferred under an initial loading of about 3.5 g to 10 ml organ baths containing 95% O2 /5% CO2 -aerated Krebs-Henseleit nutrient solution temperature-controlled at 37° C. of the following composition: 119 mmol/l of NaCl; 2.5 mmol/l of CaCl2 ×2 H2 O; 1.2 mmol/l of KH2 PO4; 10 mmol/l of glucose; 4.8 mmol/l of KCl; 1.4 mmol/l of MgSO4 ×7 H2 O and 25 mmol/l of NaHCO3.
The contractions are measured isometrically by Statham UC2 cells by means of bridge amplifiers (ifd Mulheim or DSM Aalen) and digitalised and analysed by means of A/D convertors (System 570, Keithley Munich). Agonist dose response curves (DRC) were plotted hourly. With each DRC, 3 or 4 individual concentrations are applied to the baths at an interval of 4 min. […]
The height of the 3rd DRC in the normal case is used as a reference quantity for the evaluation of the test substance to be investigated in further passages, which is applied to the baths in the following DRCs in increasing dosage in each case at the start of the incubation time. […]

- IC50: 280 nM
Structure (SMILES): CCCCc1cc(C(=O)O)cc(=O)n1Cc1ccc(S(=O)(=O)N2CCCC2C(=O)O)cc1Cl (stereo not shown) [Example 6]
